Data from PubChem BioAssay AID2060903 (Molecular Pharmacology Branch, DTP, NCI, 2025).
pIC50: −log10 of the molar value.

System: 377384-186-R-J1-PDC complex spheroid viability
Assay: Anticancer human tumor 377384-186-R-J1-PDC patient-derived pancreatic carcinoma cell line growth inhibition [RAS]
Conditions: for pIC50: curve of first compound; for viability, T/C: stronger effect = lower value
Text: RAS pathway inhibitors in Combinations in Complex Spheroids
A high-throughput screen of multi-cell type tumor spheroids was designed to identify active combinations of RAS pathway inhibitors and targeted small molecules. Complex spheroids include a stromal component modeled by human endothelial cells (HUVEC) and fibroblasts modeled by human mesenchymal stem cells (MSCs). The concentration ranges selected for each drug and investigational agent were based upon clinically achievable concentrations if the clinical Cmax of the agent was known.
Compounds. The drugs and investigational agents: abemaciclib (NSC768073), cobimetinib (NSC768068), divarasib (GDC6063, NSC841802), docetaxel (NSC628503), GDC-1971 (RLY-1971, NSC841576), gemcitabine (NSC613327), inavolisib (NSC800729), ipatasertib (NSC767898), KB-0742 (NSC834161), MRTX-1133 (NSC836407), osimertinib (NSC779217), RMC-4630 (NSC839698), RMC-6236 (NSC851965), RMC-6291 (NSC852671), Ro-3306 (NSC812927), sapanisertib (NSC764658), SN-38 (NSC673596), staurosporine (NSC755774), SY5609 (NSC837396), and tovorafenib (DAY101, NSC766906), were obtained from the National Cancer Institute (NCI) Developmental Therapeutics Program Chemical Repository. The FDA-approved anticancer drug set is available from the NCI Developmental Therapeutics Program. […] The stock solutions were prepared in dimethyl sulfoxide (DMSO, Sigma-Aldrich, St. Louis, MO, cat. D2650) at 800-fold the tested concentration and stored at -70 degrees C prior to their use. All drugs and investigational agents were tested over a range starting from a high concentration at or near the clinical Cmax and decreasing in half-log increments. If the clinical Cmax for an agent had not been determined, the highest concentration tested was 10 microM.
Cell Culture. All cells were maintained in an incubator at 37 degrees C and 5% CO2 with 95% humidity. The PDC lines were cultured according to standard operating procedures established by the NCI PDMR. All PDCs were thawed and cultured in Matrigel-coated flasks prepared with a working solution of 1X Ham's F-12 nutrient mix, without supplementation (Invitrogen, Waltham, MA, cat. 11765054), 100 U/mL penicillin-streptomycin (Invitrogen, cat. 15140122), and 2.5% Matrigel (Corning Inc., Corning, NY, cat. 354248) for the first three passages. The 362531-283-R-J2-PDC and 782815-120-R-J1-PDC lines were cultured in 6C/Colon 1B media, which includes advanced DMEM/F-12 (Thermo Fisher Scientific, cat. 12634028), 10 mM HEPES (Thermo Fisher Scientific, cat. 15630080), 1X GlutaMAX supplement (Thermo Fisher Scientific, cat. 35050061), 0.1 mg/mL primocin (InvivoGen, San Diego, CA, cat. ant-pm-2), 10% defined fetal bovine serum, heat inactivated (HyClone Laboratories Inc., Logan, UT, cat. SH30070.03HI), 50% L-WRN conditioned media (ATCC, cat. CRL-3276), 1.25 mM N-Acetyl-L-cysteine (Sigma-Aldrich, cat. A9165), 10 mM nicotinamide (Sigma-Aldrich, cat. N0636), 1X B-27 supplement (Thermo Fisher Scientific, cat. 17504044), 1X N-2 supplement (Thermo Fisher Scientific, cat. 17502048), 50 ng/mL human EGF (Thermo Fisher Scientific, cat. PHG0311), and 10 microM Y-27632 dihydrochloride (Tocris Bioscience, cat. 1254). The K12877-001-R-J1-PDC line was cultured in 6I media, which includes all 6C/Colon 1B media plus 10 ng/mL human FGF-10 (PeproTech, cat. 100-26), 1 ng/mL human FGF-2 (PeproTech, cat. 100-18B), 1 µM prostaglandin E2 (Tocris Bioscience, cat. 2296), […] hydrocortisone (Sigma-Aldrich, cat. H4001), and […] bovine insulin (Sigma-Aldrich, cat. I6634). The K86415-001-R-J1-PDC line was cultured in 6D media, which includes all 6C/Colon 1B media components minus the L-WRN conditioned media. The 485176-168-R4-J1-PDC was cultured in PANC media, which includes all 6C/Colon 1B media plus 100 ng/mL human FGF-10 (PeproTech, cat. 100-26), 500 nM SB-431542 (Selleckchem, cat. S1067), and 10 nM gastrin (Tocris Bioscience, cat. 3006). […]

[1] = second compound 0.0316 µM, first compound 0.0316 µM
[2] = second compound 0.0316 µM, first compound 0.1 µM
[3] = second compound 0.1 µM, first compound 0.0316 µM
[4] = second compound 0.1 µM, first compound 0.1 µM
[5] = second compound 0.316 µM, first compound 0.0316 µM
[6] = second compound 0.316 µM, first compound 0.1 µM
[7] = second compound 1 µM, first compound 0.0316 µM
[8] = second compound 1 µM, first compound 0.1 µM
[9] = second compound 3.16 µM, first compound 0.0316 µM
[10] = second compound 3.16 µM, first compound 0.1 µM
[11] = second compound 10 µM, first compound 0.0316 µM
[12] = second compound 10 µM, first compound 0.1 µM
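Further: spheroids exposed to compounds for seven days before readout.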

## CC(C)NCC(C(=O)N1CCN(c2ncnc3c2C(C)CC3O)CC1)c1ccc(Cl)cc1 (centres undefined) + C#Cc1c(F)ccc2cc(O)cc(-c3ncc4c(N5CC6CCC(C5)N6)nc(OCC56CCCN5CC(F)C6)nc4c3F)c12
Second compound 0.0316 µM
  pIC50: > 7.50
Second compound 0.1 µM
  pIC50: > 7.50
Second compound 0.316 µM
  pIC50: > 7.50
Second compound 1 µM
  pIC50: > 7.50
Second compound 3.16 µM
  pIC50: > 7.50
Second compound 10 µM
  pIC50: > 7.50
[1]
  viability, T/C: 22.6%
[2]
  viability, T/C: 18.8%
Second compound 0.0316 µM, first compound 0.316 µM
  viability, T/C: 18.2%
Second compound 0.0316 µM, first compound 1 µM
  viability, T/C: 16.9%
Second compound 0.0316 µM, first compound 3.16 µM
  viability, T/C: 11%
Second compound 0.0316 µM, first compound 10 µM
  viability, T/C: 9.91%
[3]
  viability, T/C: 10.2%
[4]
  viability, T/C: 10.5%
Second compound 0.1 µM, first compound 0.316 µM
  viability, T/C: 8.54%
Second compound 0.1 µM, first compound 1 µM
  viability, T/C: 9.68%
Second compound 0.1 µM, first compound 3.16 µM
  viability, T/C: 6.47%
Second compound 0.1 µM, first compound 10 µM
  viability, T/C: 3.99%
[5]
  viability, T/C: 4.76%
[6]
  viability, T/C: 4.25%
Second compound 0.316 µM, first compound 0.316 µM
  viability, T/C: 5.02%
Second compound 0.316 µM, first compound 1 µM
  viability, T/C: 3.37%
Second compound 0.316 µM, first compound 3.16 µM
  viability, T/C: 3.87%
Second compound 0.316 µM, first compound 10 µM
  viability, T/C: 3.34%
[7]
  viability, T/C: 3.41%
[8]
  viability, T/C: 17.1%
Second compound 1 µM, first compound 0.316 µM
  viability, T/C: 2.83%
Second compound 1 µM, first compound 1 µM
  viability, T/C: 2.26%
Second compound 1 µM, first compound 3.16 µM
  viability, T/C: 1.72%
Second compound 1 µM, first compound 10 µM
  viability, T/C: 1.05%
[9]
  viability, T/C: 2.28%
[10]
  viability, T/C: 2.34%
Second compound 3.16 µM, first compound 0.316 µM
  viability, T/C: 1.81%
Second compound 3.16 µM, first compound 1 µM
  viability, T/C: 1.19%
Second compound 3.16 µM, first compound 3.16 µM
  viability, T/C: 1.15%
Second compound 3.16 µM, first compound 10 µM
  viability, T/C: 0.64%
[11]
  viability, T/C: 1.35%
[12]
  viability, T/C: 1.29%
Second compound 10 µM, first compound 0.316 µM
  viability, T/C: 0.78%
Second compound 10 µM, first compound 1 µM
  viability, T/C: 0.79%
Second compound 10 µM, first compound 3.16 µM
  viability, T/C: 0.61%
Second compound 10 µM, first compound 10 µM
  viability, T/C: 0.18%

## CC(C)n1nc(-c2ccc3oc(N)nc3c2)c2c(N)ncnc21 + C#Cc1c(F)ccc2cc(O)cc(-c3ncc4c(N5CC6CCC(C5)N6)nc(OCC56CCCN5CC(F)C6)nc4c3F)c12
Second compound 0.0316 µM
  pIC50: > 9.50
Second compound 0.1 µM
  pIC50: > 9.50
Second compound 0.316 µM
  pIC50: > 9.50
Second compound 1 µM
  pIC50: > 9.50
Second compound 3.16 µM
  pIC50: > 9.50
Second compound 10 µM
  pIC50: > 9.50
Second compound 0.0316 µM, first compound 0.000316 µM
  viability, T/C: 23.1%
Second compound 0.0316 µM, first compound 0.001 µM
  viability, T/C: 17.9%
Second compound 0.0316 µM, first compound 0.00316 µM
  viability, T/C: 13.3%
Second compound 0.0316 µM, first compound 0.01 µM
  viability, T/C: 16.1%
[1]
  viability, T/C: 8.86%
[2]
  viability, T/C: 7.03%
Second compound 0.1 µM, first compound 0.000316 µM
  viability, T/C: 9.35%
Second compound 0.1 µM, first compound 0.001 µM
  viability, T/C: 10.2%
Second compound 0.1 µM, first compound 0.00316 µM
  viability, T/C: 8.78%
Second compound 0.1 µM, first compound 0.01 µM
  viability, T/C: 8.07%
[3]
  viability, T/C: 4.39%
[4]
  viability, T/C: 3.64%
Second compound 0.316 µM, first compound 0.000316 µM
  viability, T/C: 4.61%
Second compound 0.316 µM, first compound 0.001 µM
  viability, T/C: 4.79%
Second compound 0.316 µM, first compound 0.00316 µM
  viability, T/C: 3.5%
Second compound 0.316 µM, first compound 0.01 µM
  viability, T/C: 3.8%
[5]
  viability, T/C: 2.4%
[6]
  viability, T/C: 2.03%
Second compound 1 µM, first compound 0.000316 µM
  viability, T/C: 2.88%
Second compound 1 µM, first compound 0.001 µM
  viability, T/C: 2.78%
Second compound 1 µM, first compound 0.00316 µM
  viability, T/C: 2.19%
Second compound 1 µM, first compound 0.01 µM
  viability, T/C: 2.05%
[7]
  viability, T/C: 1.53%
[8]
  viability, T/C: 1.23%
Second compound 3.16 µM, first compound 0.000316 µM
  viability, T/C: 1.79%
Second compound 3.16 µM, first compound 0.001 µM
  viability, T/C: 2.07%
Second compound 3.16 µM, first compound 0.00316 µM
  viability, T/C: 2.15%
Second compound 3.16 µM, first compound 0.01 µM
  viability, T/C: 1.84%
[9]
  viability, T/C: 1.11%
[10]
  viability, T/C: 0.65%
Second compound 10 µM, first compound 0.000316 µM
  viability, T/C: 1.04%
Second compound 10 µM, first compound 0.001 µM
  viability, T/C: 0.81%
Second compound 10 µM, first compound 0.00316 µM
  viability, T/C: 0.8%
Second compound 10 µM, first compound 0.01 µM
  viability, T/C: 0.63%
[11]
  viability, T/C: 0.95%
[12]
  viability, T/C: 0.15%
